# Experimental data as given in patent publication US20080146599A1, “Pyrimidine Compounds Having Tie-2 (Tek) Inhibitory Activity” (ASTRAZENECA AB, priority 2005, published 2008).
# pIC50: −log10 of the molar value. Like-named read-outs stand apart in the source and are kept apart here.
# What was measured:
# [1] = target: T1, Tie2 receptor tyrosine kinase (Homo sapiens, UniProt Q02763); assay: In vitro receptor tyrosine kinase inhibition assay (ELISA based microtitre plate assay); format: biochemical; conditions: recombinant human Tie2 kinase domain lysate, ATP 5 micromolar or Km; read-out: IC50 (μM) Test (a): Inhibition of Tie2 receptor tyrosine kinase in vitro
# T1 construct: consist of only the intracellular portion C-terminal portion of the respective receptor, within which is found the kinase domain; made in house; host or cells: baculovirus/Sf21 insect cells (or alternative equivalent); cleared lysate used, not purified protein
# T1 sequence (Q02763 770-1124 limits assumed): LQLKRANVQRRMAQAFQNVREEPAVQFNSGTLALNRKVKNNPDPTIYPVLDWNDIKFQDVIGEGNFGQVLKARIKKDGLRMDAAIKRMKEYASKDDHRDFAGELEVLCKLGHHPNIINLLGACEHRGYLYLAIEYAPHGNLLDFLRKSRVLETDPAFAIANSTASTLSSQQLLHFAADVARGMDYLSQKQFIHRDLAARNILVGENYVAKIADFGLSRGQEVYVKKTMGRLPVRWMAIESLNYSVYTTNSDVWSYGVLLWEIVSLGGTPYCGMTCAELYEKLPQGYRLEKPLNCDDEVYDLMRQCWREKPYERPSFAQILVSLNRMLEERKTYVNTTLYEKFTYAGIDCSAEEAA
# Procedure: Constitutive kinase activity of these recombinant proteins was determined by their ability to phosphorylate a synthetic peptide (made up of a random co-polymer of Glutamic Acid, Alanine and Tyrosine in the ratio of 6:3:1). […] Plates were washed in 50 mM HEPES pH 7.4 at room temperature to remove any excess unbound synthetic peptide.
# The immobilised phospho-peptide product of the reaction was detected by immunological methods.
# Kinase inhibition for a given compound was expressed as an IC50 value. […] The range of phosphorylation was calculated from the positive (vehicle plus ATP) and negative (vehicle minus ATP) control values.
# Tie2 receptor = target: T2, Tie2 receptor (Homo sapiens, UniProt Q02763); assay: Cellular Tie2 autophosphorylation assay (Ang1 ligand stimulated); format: cell-based; conditions: for IC50: whole cells, for example EA.hy926/B3, Ang1 ligand stimulated, read-out: IC50 (μM) Test (b): Inhibition of autophosphorylation of Tie2 receptor tyrosine kinase
# T2 construct: one can use natural cell lines or primary cells which are known to express the receptor of choice; endogenous in cells; host or cells: EA.hy926/B3 cells
# T2 sequence (Q02763 23-1124): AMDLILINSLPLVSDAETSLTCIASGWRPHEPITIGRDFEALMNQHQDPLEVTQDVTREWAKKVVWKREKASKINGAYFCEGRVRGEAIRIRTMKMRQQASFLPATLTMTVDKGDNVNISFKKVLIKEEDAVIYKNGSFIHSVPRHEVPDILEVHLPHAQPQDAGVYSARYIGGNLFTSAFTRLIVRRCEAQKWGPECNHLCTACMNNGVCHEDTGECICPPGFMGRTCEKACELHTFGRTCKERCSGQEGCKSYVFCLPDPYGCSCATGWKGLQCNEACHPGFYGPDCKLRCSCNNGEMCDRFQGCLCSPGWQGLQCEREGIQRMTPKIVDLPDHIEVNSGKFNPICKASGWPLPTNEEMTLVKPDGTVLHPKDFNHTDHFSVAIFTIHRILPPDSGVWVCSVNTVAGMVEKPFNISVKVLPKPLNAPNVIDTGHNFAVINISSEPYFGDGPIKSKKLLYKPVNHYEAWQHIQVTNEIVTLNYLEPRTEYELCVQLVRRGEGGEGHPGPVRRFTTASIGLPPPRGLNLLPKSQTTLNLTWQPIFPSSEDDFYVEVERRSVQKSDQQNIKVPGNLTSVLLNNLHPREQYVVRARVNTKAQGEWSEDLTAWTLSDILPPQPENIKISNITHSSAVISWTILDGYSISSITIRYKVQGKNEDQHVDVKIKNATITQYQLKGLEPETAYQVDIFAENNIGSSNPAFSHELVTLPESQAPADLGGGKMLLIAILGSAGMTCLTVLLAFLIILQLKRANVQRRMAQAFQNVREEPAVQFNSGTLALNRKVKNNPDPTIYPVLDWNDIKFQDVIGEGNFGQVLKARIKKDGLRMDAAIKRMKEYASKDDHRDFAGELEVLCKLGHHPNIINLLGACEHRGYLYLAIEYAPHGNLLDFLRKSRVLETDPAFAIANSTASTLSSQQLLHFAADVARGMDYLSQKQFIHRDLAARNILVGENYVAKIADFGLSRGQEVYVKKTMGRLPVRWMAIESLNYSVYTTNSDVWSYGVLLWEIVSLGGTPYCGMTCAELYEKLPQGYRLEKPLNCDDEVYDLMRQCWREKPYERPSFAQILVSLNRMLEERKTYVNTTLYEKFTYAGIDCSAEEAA
IC50 [1],IC50 (Tie2 receptor),SMILES,pIC50 (Tie2 receptor)
7.5 µM,0.78 µM,"Nc1ncnc(N)c1C#Cc1cccc(NS(=O)(=O)c2ccccc2Cl)c1 [Example 1, 2-chloro-N-{3-[(4,6-diaminopyrimidin-5-yl)ethynyl]phenyl}benzenesulfonamide]",–
0.4 µM,0.34 µM,"Nc1ncnc(N)c1C#Cc1cccc(NS(=O)(=O)c2cc(F)ccc2F)c1 [Example 6, N-{3-[(4,6-diaminopyrimidin-5-yl)ethynyl]phenyl}-2,5-difluorobenzenesulfonamide]",–

SMILES,IC50 [1],IC50 (Tie2 receptor),pIC50 (Tie2 receptor)
"Nc1ncnc(N)c1C#Cc1cccc(NS(=O)(=O)c2cccc(Cl)c2Cl)c1 [Example 3, 2,3-dichloro-N-{3-[(4,6-diaminopyrimidin-5-yl)ethynyl]phenyl}benzenesulfonamide]",3.7 µM,–,6.54
